The values below come from patent publication US20230295200A1 (REGENTS OF THE UNIVERSITY OF MICHIGAN, priority 2022, published 2023).

The assay has as its target T1, STAT6 protein (Homo sapiens, UniProt P42226).
T1 sequence (P42226 1-847): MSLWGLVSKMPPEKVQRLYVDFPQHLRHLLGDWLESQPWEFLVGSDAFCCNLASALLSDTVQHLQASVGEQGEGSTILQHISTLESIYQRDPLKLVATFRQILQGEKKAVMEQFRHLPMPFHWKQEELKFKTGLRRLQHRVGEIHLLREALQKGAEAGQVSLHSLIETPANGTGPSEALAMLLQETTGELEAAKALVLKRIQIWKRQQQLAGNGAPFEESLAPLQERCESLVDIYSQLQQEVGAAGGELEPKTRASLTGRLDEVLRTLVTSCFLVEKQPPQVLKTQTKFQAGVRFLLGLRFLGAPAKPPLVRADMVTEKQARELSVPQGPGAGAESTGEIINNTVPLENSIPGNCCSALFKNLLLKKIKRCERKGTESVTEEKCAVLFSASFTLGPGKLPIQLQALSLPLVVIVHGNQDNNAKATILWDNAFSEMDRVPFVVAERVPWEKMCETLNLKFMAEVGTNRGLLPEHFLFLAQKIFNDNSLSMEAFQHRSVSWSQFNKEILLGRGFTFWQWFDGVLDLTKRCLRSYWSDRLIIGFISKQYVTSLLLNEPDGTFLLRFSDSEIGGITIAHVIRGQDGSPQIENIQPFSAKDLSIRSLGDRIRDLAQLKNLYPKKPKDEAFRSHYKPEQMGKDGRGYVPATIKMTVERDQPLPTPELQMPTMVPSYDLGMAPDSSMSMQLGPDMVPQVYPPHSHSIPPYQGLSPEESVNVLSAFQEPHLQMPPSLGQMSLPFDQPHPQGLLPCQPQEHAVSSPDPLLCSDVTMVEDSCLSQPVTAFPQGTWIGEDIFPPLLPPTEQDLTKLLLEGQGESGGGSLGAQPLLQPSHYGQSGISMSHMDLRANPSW
Put plainly: Fluorescence polarization (FP) binding assay, STAT6. The following applies: FP competition, 5 nM fluorescein-labeled tracer, 200 nM protein, PBS pH7.4; read-out: Binding STAT6. The method in brief:
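Polarization read after 1 h equilibration at room temperature (preceded by 15 min shaking) of 200 nM STAT5 and/or STAT6 with 5 nM fluorescein tracer. Buffer: PBS pH 7.4 plus 0.01% BGG, 0.01% Tween-20, 2 mM DTT; inhibition constants derived by nonlinear fitting.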
In the case of `O=C(N[C@@H](CCc1ccccc1)C(=O)N1CCC[C@H]1C(=O)N1CCO[C@H](c2ccccc2)C1)c1cc2cc(C(F)(F)P(=O)(O)O)ccc2s1` [Compound 288, (difluoro(2-(((S)-1-oxo-4-phenyl-1-((S)-2-((R)-2-phenylmorpholine-4-carbonyl)pyrrolidin-1-yl)butan-2-yl)carbamoyl)benzo[b]thiophen-5-yl)methyl)phosphonic acid], the Ki lay within 100 to 1000 nM. The result for `O=C(N[C@@H](CCCc1ccccc1)C(=O)N1CCC[C@H]1C(=O)N1CCO[C@H](c2ccccc2)C1)c1cc2cc(C(F)(F)P(=O)(O)O)ccc2s1` [Compound 289, (difluoro(2-(((S)-1-oxo-5-phenyl-1-((S)-2-((R)-2-phenylmorpholine-4-carbonyl)pyrrolidin-1-yl)pentan-2-yl)carbamoyl)benzo[b]thiophen-5-yl)methyl)phosphonic acid] reads less than 100 nM. `O=C(N[C@@H](CC1CCNCC1)C(=O)N1CCC[C@H]1C(=O)N1CCO[C@H](c2ccccc2)C1)c1cc2cc(C(F)(F)P(=O)(O)O)ccc2s1` [Compound 290, (difluoro(2-(((S)-1-oxo-1-((S)-2-((R)-2-phenylmorpholine-4-carbonyl)pyrrolidin-1-yl)-3-(piperidin-4-yl)propan-2-yl)carbamoyl)benzo[b]thiophen-5-yl)methyl)phosphonic acid]: the Ki is 100 to 1000 nM. The result for `CN1CCC(C[C@H](NC(=O)c2cc3cc(C(F)(F)P(=O)(O)O)ccc3s2)C(=O)N2CCC[C@H]2C(=O)N2CCO[C@H](c3ccccc3)C2)CC1` [Compound 291, (difluoro(2-(((S)-3-(1-methylpiperidin-4-yl)-1-oxo-1-((S)-2-((R)-2-phenylmorpholine-4-carbonyl)pyrrolidin-1-yl)propan-2-yl)carbamoyl)benzo[b]thiophen-5-yl)methyl)phosphonic acid] reads 100 to 1000 nM; that for `CCN1CCC(C[C@H](NC(=O)c2cc3cc(C(F)(F)P(=O)(O)O)ccc3s2)C(=O)N2CCC[C@H]2C(=O)N2CCO[C@H](c3ccccc3)C2)CC1` [Compound 292, ((2-(((S)-3-(1-ethylpiperidin-4-yl)-1-oxo-1-((S)-2-((R)-2-phenylmorpholine-4-carbonyl)pyrrolidin-1-yl)propan-2-yl)carbamoyl)benzo[b]thiophen-5-yl)difluoromethyl)phosphonic acid], 100 to 1000 nM; that for `CC(C)CCN1CCC(C[C@H](NC(=O)c2cc3cc(C(F)(F)P(=O)(O)O)ccc3s2)C(=O)N2CCC[C@H]2C(=O)N2CCO[C@H](c3ccccc3)C2)CC1` [Compound 293, (difluoro(2-(((S)-3-(1-isopentylpiperidin-4-yl)-1-oxo-1-((S)-2-((R)-2-phenylmorpholine-4-carbonyl)pyrrolidin-1-yl)propan-2-yl)carbamoyl)benzo[b]thiophen-5-yl)methyl)phosphonic acid], 100 to 1000 nM.

Turning to `O=C(N[C@@H](CC1CCN(CC2CCCCC2)CC1)C(=O)N1CCC[C@H]1C(=O)N1CCO[C@H](c2ccccc2)C1)c1cc2cc(C(F)(F)P(=O)(O)O)ccc2s1` [Compound 294, ((2-(((S)-3-(1-(cyclohexylmethyl)piperidin-4-yl)-1-oxo-1-((S)-2-((R)-2-phenylmorpholine-4-carbonyl)pyrrolidin-1-yl)propan-2-yl)carbamoyl)benzo[b]thiophen-5-yl)difluoromethyl)phosphonic acid], the Ki fell in the range of 100 to 1000 nM. Then `CCC(CC)CN1CCC(C[C@H](NC(=O)c2cc3cc(C(F)(F)P(=O)(O)O)ccc3s2)C(=O)N2CCC[C@H]2C(=O)N2CCO[C@H](c3ccccc3)C2)CC1` [Compound 295, ((2-(((S)-3-(1-(2-ethylbutyl)piperidin-4-yl)-1-oxo-1-((S)-2-((R)-2-phenylmorpholine-4-carbonyl)pyrrolidin-1-yl)propan-2-yl)carbamoyl)benzo[b]thiophen-5-yl)difluoromethyl)phosphonic acid], with 100 to 1000 nM; and `O=C(N[C@@H](CC1CCN(CCc2ccccc2)CC1)C(=O)N1CCC[C@H]1C(=O)N1CCO[C@H](c2ccccc2)C1)c1cc2cc(C(F)(F)P(=O)(O)O)ccc2s1` [Compound 296, (difluoro(2-(((S)-1-oxo-3-(1-phenethylpiperidin-4-yl)-1-((S)-2-((R)-2-phenylmorpholine-4-carbonyl)pyrrolidin-1-yl)propan-2-yl)carbamoyl)benzo[b]thiophen-5-yl)methyl)phosphonic acid], with 100 to 1000 nM; and `O=C(N[C@@H](CC1CCN(CCCc2ccccc2)CC1)C(=O)N1CCC[C@H]1C(=O)N1CCO[C@H](c2ccccc2)C1)c1cc2cc(C(F)(F)P(=O)(O)O)ccc2s1` [Compound 297, (difluoro(2-(((S)-1-oxo-1-((S)-2-((R)-2-phenylmorpholine-4-carbonyl)pyrrolidin-1-yl)-3-(1-(3-phenylpropyl)piperidin-4-yl)propan-2-yl)carbamoyl)benzo[b]thiophen-5-yl)methyl)phosphonic acid], with 100 to 1000 nM. Then `CC(C)(C)[C@H](NC(=O)c1cc2cc(C(F)(F)P(=O)(O)O)ccc2s1)C(=O)N1C[C@H](Oc2ccccc2)C[C@H]1C(=O)N1CCO[C@H](c2ccccc2)C1` [Compound 299, ((2-(((S)-3,3-dimethyl-1-oxo-1-((2S,4R)-4-phenoxy-2-((R)-2-phenylmorpholine-4-carbonyl)pyrrolidin-1-yl)butan-2-yl)carbamoyl)benzo[b]thiophen-5-yl)difluoromethyl)phosphonic acid], with 100 to 1000 nM; and `CC(C)(C)[C@H](NC(=O)c1cc2cc(C(F)(F)P(=O)(O)O)ccc2s1)C(=O)N1C[C@H](OCc2ccccc2)C[C@H]1C(=O)N1CCO[C@H](c2ccccc2)C1` [Compound 300, ((2-(((S)-1-((2S,4R)-4-(benzyloxy)-2-((R)-2-phenylmorpholine-4-carbonyl)pyrrolidin-1-yl)-3,3-dimethyl-1-oxobutan-2-yl)carbamoyl)benzo[b]thiophen-5-yl)difluoromethyl)phosphonic acid], with less than 100 nM. Then `CC(C)(C)[C@H](NC(=O)c1cc2cc(C(F)(F)P(=O)(O)O)ccc2s1)C(=O)N1C[C@@H](Oc2ccccc2)C[C@H]1C(=O)N1CCO[C@H](c2ccccc2)C1` [Compound 301, ((2-(((S)-3,3-dimethyl-1-oxo-1-((2S,4S)-4-phenoxy-2-((R)-2-phenylmorpholine-4-carbonyl)pyrrolidin-1-yl)butan-2-yl)carbamoyl)benzo[b]thiophen-5-yl)difluoromethyl)phosphonic acid], with less than 100 nM; and `CN1CC[C@H]2CC[C@@H](C(=O)N3CCc4ccccc4C3)N2C(=O)[C@@H](NC(=O)c2cc3cc(C(F)(F)P(=O)(O)O)ccc3[nH]2)C1` [Compound 330, (difluoro(2-(((5S,8S,10aR)-3-methyl-6-oxo-8-(1,2,3,4-tetrahydroisoquinoline-2-carbonyl)decahydropyrrolo[1,2-a][1,5]diazocin-5-yl)carbamoyl)-1H-indol-5-yl)methyl)phosphonic acid], with greater than 10000 nM; and `CN1CC[C@H]2CC[C@@H](C(=O)N3CCc4ccccc4C3)N2C(=O)[C@@H](NC(=O)c2cc3cc(C(F)(F)P(=O)(O)O)ccc3s2)C1` [Compound 331, (difluoro(2-(((5S,8S,10aR)-3-methyl-6-oxo-8-(1,2,3,4-tetrahydroisoquinoline-2-carbonyl)decahydropyrrolo[1,2-a][1,5]diazocin-5-yl)carbamoyl)benzo[b]thiophen-5-yl)methyl)phosphonic acid], with greater than 10000 nM.
